Experimental data: ChEMBL document CHEMBL3244348, “Antiallergic agents. Xanthone-2,7-dicarboxylic acid derivatives” (1977)

system: Rattus norvegicus; experiment: Antiallergic activity in homocytotropic antiovalbumin antiserum-injected Sprague-Dawley rat assessed as inhibition of passive cutaneous anaphylaxis wheal reaction at 100 mg/kg, po administered 1 hr prior to ovalbumin challenge measured 20 mins after antigen challenge; type: functional

**Q.** With O=C(O)c1ccc2oc3ccc(C(=O)O)cc3c(=O)c2c1 as the compound, how does the inhibition in vivo at 100 mg/kg read?
**A.** 1%

**Q.** CCOC(=O)c1ccc2oc3ccc(C(=O)OCC)cc3c(=O)c2c1 was tested. Which inhibition in vivo at 100 mg/kg did it give?
**A.** 8%

**Q.** NC(=O)c1ccc2oc3ccc(C(N)=O)cc3c(=O)c2c1 was tested. Which inhibition in vivo at 100 mg/kg did it give?
**A.** 34%

**Q.** With CNC(=O)c1ccc2oc3ccc(C(=O)NC)cc3c(=O)c2c1 as the compound, how does the inhibition in vivo at 100 mg/kg read?
**A.** 19%

**Q.** How did the inhibition in vivo at 100 mg/kg turn out when CCCNC(=O)c1ccc2oc3ccc(C(=O)NCCC)cc3c(=O)c2c1 was run?
**A.** 19%

**Q.** COCCOCCCNC(=O)c1ccc2oc3ccc(C(=O)NCCCOCCOC)cc3c(=O)c2c1 was tested. Which inhibition in vivo at 100 mg/kg did it give?
**A.** 19%

**Q.** Which inhibition in vivo at 100 mg/kg does the source give for CN(C)C(=O)c1ccc2oc3ccc(C(=O)N(C)C)cc3c(=O)c2c1 here?
**A.** 69%

**Q.** For CCN(CC)C(=O)c1ccc2oc3ccc(C(=O)N(CC)CC)cc3c(=O)c2c1, which inhibition in vivo at 100 mg/kg is on record?
**A.** 53%

**Q.** For O=C(c1ccc2oc3ccc(C(=O)N(C4CCCCC4)C4CCCCC4)cc3c(=O)c2c1)N(C1CCCCC1)C1CCCCC1, which inhibition in vivo at 100 mg/kg is on record?
**A.** 42%

**Q.** For C=CCN(CC=C)C(=O)c1ccc2oc3ccc(C(=O)N(CC=C)CC=C)cc3c(=O)c2c1, which inhibition in vivo at 100 mg/kg is on record?
**A.** 51%

**Q.** Which inhibition in vivo at 100 mg/kg does the source give for O=C(c1ccc2oc3ccc(C(=O)N4CCCCC4)cc3c(=O)c2c1)N1CCCCC1 here?
**A.** 57%

**Q.** Which inhibition in vivo at 100 mg/kg does the source give for O=C(c1ccc2oc3ccc(C(=O)N4CC5CCC(CC5)C4)cc3c(=O)c2c1)N1CC2CCC(CC2)C1 here?
**A.** 48%

**Q.** With O=C(c1ccc2oc3ccc(C(=O)N4CCOCC4)cc3c(=O)c2c1)N1CCOCC1 as the compound, how does the inhibition in vivo at 100 mg/kg read?
**A.** 42%
